Tested on: microorganism culture
Assay: Comparative testing: time to death of the culture after contact
Type: cell-based
Protocol: Isopropyl-o-cresol (95% purity) was obtained as described in Examples I and 2. A 50% solution of isopropyl-o-cresol was prepared by combining 50 grams of isopropyl-o-cresol with […] citric and propionic acid.
An antimicrobial compound containing isopropyl-o-cresol was prepared as described in Examples 3 and 4.
Each compound was administered to a culture of […]. Cell death was observed by monitoring whether or not the cells multiplied.
For example, when the microorganism culture was contacted with isopropyl-o-cresol alone the cells died within 6-8 hours after contact. When the microorganism culture was contacted with isopropyl-o-cresol combined with an organic acid to form a solution (without chemical modification of either species), the microorganisms died within 3-4 hours after exposure. When the microorganism culture was contacted with an antimicrobial compound containing isopropyl-o-cresol reacted with propionic and citric acids (50:50), the organisms died within 5-10 minutes after being contacted with the antimicrobial compound.

SMILES	time within which the organisms died after contact	time within which the cells died after contact
CC(C)c1cc(CC(=O)O)cc(O)c1OC(=O)C(O)(CC(=O)O)CC(=O)O [3-{[4-(carboxymethyl)-2-hydroxy-6-isopropylphenoxy]carbonyl}-3-hydroxypentanedioic acid]	5 to 10 min	–
Cc1ccc(C(C)C)cc1O [isopropyl-o-cresol, 5-isopropyl-2-methylphenol]	–	6 to 8 h

From patent publication US6414036B1, “Composition for treatment of infections of humans and animals” (Van Beek Global/Ninkov LLC, priority 1999, dated 2002)
